In patent US11571423B2, “Small molecule modulators of human sting” (Curadev Pharma Limited, priority 2017, dated 2023):
pEC50: −log10 of the molar value.

Columns and labels:
[1] = target: hSTING(R232) (Homo sapiens, UniProt Q86WV6, H232R); assay: Luciferase reporter assay in HEK293T-hSTING-Luciferase cells, R232 (wild type) human STING; type: cell-based; settings: 20 hr stimulation, read-out: R232 human activity (EC50 range)
Method in brief: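 After 20 hr compound stimulation of 5×10^5 cells, secreted luciferase in the supernatant was measured by luminescence; values are fold-induction over baseline and EC50. The line is a clonal HEK293T stably carrying a STING plasmid (pUNO-1) and a luciferase reporter under five tandem ISREs fused to an ISG54 promoter.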

[2] = target: cynomolgus monkey STING protein (Macaca fascicularis, UniProt A0A2R3XZA6); assay: Luciferase reporter assay, cynomolgus monkey STING overexpressed in HEK293T cells; type: cell-based; settings: cynomolgus monkey STING overexpressed in HEK293T cells; read-out: Cynomolgus monkey STING activity (EC50 range)
Description: 5×10^5 clonally selected HEK293T-hSTING-Luciferase cells were seeded in 384-well plates in growth medium and stimulated with novel compounds. After 20 hr of stimulation supernatant were removed and secretary reporter gene activity were measured using the Quanti-Luc detection system (Invivogen) on a Spectramax i3X luminometer.
In the tables below, EC50 value ranges for exemplary compounds are given.
Selected compounds were further tested against cynomolgus monkey STING protein overexpressed in HEK293T cells.

Sequence of hSTING(R232) (Q86WV6 whole entry H232R, the tested form may be a part): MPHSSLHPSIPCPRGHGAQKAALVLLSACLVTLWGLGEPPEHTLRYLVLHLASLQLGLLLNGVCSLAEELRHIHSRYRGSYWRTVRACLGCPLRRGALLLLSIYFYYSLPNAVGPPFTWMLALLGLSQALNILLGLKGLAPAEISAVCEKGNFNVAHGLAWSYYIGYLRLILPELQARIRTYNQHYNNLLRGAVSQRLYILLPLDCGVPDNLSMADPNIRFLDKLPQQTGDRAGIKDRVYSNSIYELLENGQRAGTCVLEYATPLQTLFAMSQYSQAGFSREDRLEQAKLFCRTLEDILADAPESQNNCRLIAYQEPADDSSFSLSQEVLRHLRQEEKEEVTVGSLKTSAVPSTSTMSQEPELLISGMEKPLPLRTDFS
Sequence of cynomolgus monkey STING protein (A0A2R3XZA6 entry or part of it): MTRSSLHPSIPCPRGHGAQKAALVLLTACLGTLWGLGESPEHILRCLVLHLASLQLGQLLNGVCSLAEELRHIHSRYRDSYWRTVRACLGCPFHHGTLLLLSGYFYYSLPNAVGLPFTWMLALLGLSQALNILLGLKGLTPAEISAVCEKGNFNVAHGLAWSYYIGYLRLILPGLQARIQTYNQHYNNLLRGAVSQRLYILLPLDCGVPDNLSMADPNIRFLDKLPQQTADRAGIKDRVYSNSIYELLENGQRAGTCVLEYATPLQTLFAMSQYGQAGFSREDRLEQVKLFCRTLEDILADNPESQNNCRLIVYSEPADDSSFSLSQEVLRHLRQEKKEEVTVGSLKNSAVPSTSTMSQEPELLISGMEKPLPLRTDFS

Row | SMILES | pEC50 [1] | pEC50 [2]
1 | C[C@H]1c2ccc(C(=O)NCc3c(F)cc(F)cc3F)cc2N(Cc2c(F)ccc(OP(=O)(O)O)c2F)C(=O)N1C [Example 102, (S)-3-((3,4-dimethyl-2-oxo-7-((2,4,6-trifluorobenzyl)carbamoyl)-3,4-dihydroquinazolin-1(2H)-yl)methyl)-2,4-difluorophenyl dihydrogen phosphate] | > 6.00 | > 6.00
2 | CC1c2ccc(C(=O)NCc3c(F)cc(F)cc3F)cc2N(Cc2ccccc2F)C(=O)N1C (centres unmarked) [Example 202, 1-(2-fluorobenzyl)-3,4-dimethyl-2-oxo-N-(2,4,6-trifluorobenzyl)-1,2,3,4-tetrahydroquinazoline-7-carboxamide] | > 6.00 | > 6.00
3 | COc1ccc(F)c(CN2C(=O)N(C)C(C)c3ccc(C(=O)NCc4c(F)cc(F)cc4F)cc32)c1 (centres unmarked) [Example 166, 1-(2-fluoro-5-methoxybenzyl)-3,4-dimethyl-2-oxo-N-(2,4,6-trifluorobenzyl)-1,2,3,4-tetrahydroquinazoline-7-carboxamide] | > 6.00 | 5.00 to 6.00
4 | C[C@H]1c2ccc(C(=O)NCc3c(F)cc(F)cc3F)cc2N(Cc2c(F)ccc(OCCOP(=O)(O)O)c2Cl)C(=O)N1C [Example 95, (S)-2-(2-chloro-3-((3,4-dimethyl-2-oxo-7-((2,4,6-trifluorobenzyl)carbamoyl)-3,4-dihydroquinazolin-1(2H)-yl)methyl)-4-fluorophenoxy)ethyl dihydrogen phosphate] | > 6.00 | < 5.00
5 | Cc1cccc(CN2C(=O)N(C)[C@@H](C)c3ccc(C(=O)NCc4c(F)cc(F)cc4F)cc32)c1F [Example 168, (S)-1-(2-fluoro-3-methylbenzyl)-3,4-dimethyl-2-oxo-N-(2,4,6-trifluorobenzyl)-1,2,3,4-tetrahydroquinazoline-7-carboxamide] | > 6.00 | > 6.00
6 | C[C@H]1c2ccc(C(=O)NCc3c(F)cc(F)cc3F)cc2N(Cc2c(F)ccc(OCCOP(=O)(O)O)c2F)C(=O)N1C [Example 103, (S)-2-(3-((3,4-dimethyl-2-oxo-7-((2,4,6-trifluorobenzyl)carbamoyl)-3,4-dihydroquinazolin-1(2H)-yl)methyl)-2,4-difluorophenoxy)ethyl dihydrogen phosphate] | > 6.00 | > 6.00
7 | C[C@H]1c2ccc(C(=O)NCc3c(F)cc(F)cc3F)cc2N(Cc2c(F)cc(F)cc2OP(=O)(O)O)C(=O)N1C [Example 105, (S)-2-((3,4-dimethyl-2-oxo-7-((2,4,6-trifluorobenzyl)carbamoyl)-3,4-dihydroquinazolin-1(2H)-yl)methyl)-3,5-difluorophenyl dihydrogen phosphate] | > 6.00 | > 6.00
8 | Cc1cc(CN2C(=O)N(C)C(C)c3ccc(C(=O)NCc4c(F)cc(F)cc4F)cc32)no1 (centres unmarked) [Example 200, 3,4-dimethyl-1-((5-methylisoxazol-3-yl)methyl)-2-oxo-N-(2,4,6-trifluorobenzyl)-1,2,3,4-tetrahydroquinazoline-7-carboxamide] | < 5.00 | 
9 | CC1c2ccc(C(=O)NCc3c(F)cc(F)cc3F)cc2N(Cc2ccncc2F)C(=O)N1C (centres unmarked) [Example 211, 1-((3-fluoropyridin-4-yl)methyl)-3,4-dimethyl-2-oxo-N-(2,4,6-trifluorobenzyl)-1,2,3,4-tetrahydroquinazoline-7-carboxamide] | > 6.00 | 
10 | Cc1cccc(F)c1CN1C(=O)N(C)Cc2ccc(C(=O)NCc3c(F)cc(F)cc3F)cc21 [Example 9, 1-(2-fluoro-6-methylbenzyl)-3-methyl-2-oxo-N-(2,4,6-trifluorobenzyl)-1,2,3,4-tetrahydroquinazoline-7-carboxamide] | > 6.00 | 
11 | COc1cc(F)ccc1CNC(=O)c1ccc2c(c1)N(Cc1c(F)cccc1Cl)C(=O)N(C)C2 [Example 61, 1-(2-chloro-6-fluorobenzyl)-N-(4-flnoro-2-methoxybenzyl)-3-methyl-2-oxo-1,2,3,4-tetrahydroquinazoline-7-carboxamide] | < 5.00 | 
12 | COc1cc(F)c(CNC(=O)c2ccc3c(c2)N(Cc2c(F)cccc2Cl)C(=O)N(C)C3)c(F)c1 [Example 60, 1-(2-chloro-6-fluorobenzyl)-N-(2,6-difluoro-4-methoxybenzyl)-3-methyl-2-oxo-1,2,3,4-tetrahydroquinazoline-7-carboxamide] | 5.00 to 6.00 | 
13 | C[C@H]1c2ccc(C(=O)NCc3ccc(F)cc3OP(=O)(O)O)cc2N(Cc2c(F)cccc2Cl)C(=O)N1C [Example 93, (S)-2-((1-(2-chloro-6-fluorobenzyl)-3,4-dimethyl-2-oxo-1,2,3,4-tetrahydroquinazoline-7-carboxamido)methyl)-5-fluorophenyl dihydrogen phosphate] | > 6.00 | 
14 | C[C@H]1c2ccc(C(=O)NCc3c(F)cc(F)cc3F)cc2N(Cc2c(F)ccc(C(=O)NCCO)c2F)C(=O)N1C [Example 143] | > 6.00 | 
15 | COc1cccc2cc(CNC(=O)c3ccc4c(c3)N(Cc3c(F)cccc3Cl)C(=O)N(C)C4)oc12 [Example 47, 1-(2-chloro-6-fluorobenzyl)-N-((7-methoxybenzofuran-2-yl)methyl)-3-methyl-2-oxo-1,2,3,4-tetrahydroquinazoline-7-carboxamide] | < 5.00 | 
16 | CN1Cc2ccc(C(=O)NCc3c(F)cc(F)cc3F)cc2N(Cc2ccc(F)cc2F)C1=O [Example 8, 1-(2,4-difluorobenzyl)-3-methyl-2-oxo-N-(2,4,6-trifluorobenzyl)-1,2,3,4-tetrahydroquinazoline-7-carboxamide] | > 6.00 | 
17 | CN1Cc2ncc(C(=O)NCc3c(F)cc(F)cc3F)cc2N(Cc2cc(F)cc(F)c2)C1=O [Example 72, 1-(3,5-difluorobenzyl)-3-methyl-2-oxo-N-(2,4,6-trifluorobenzyl)-1,2,3,4-tetrahydropyrido[3,2-d]pyrimidine-7-carboxamide] | 5.00 to 6.00 | 
18 | Cc1nn(C)c(CN2C(=O)N(C)C(C)c3ccc(C(=O)NCc4cc5cc(F)ccc5o4)cc32)c1F (centres unmarked) [Example 224, 1-((4-fluoro-1,3-dimethyl-1H-pyrazol-5-yl)methyl)-N-((5-fluorobenzofuran-2-yl)methyl)-3,4-dimethyl-2-oxo-1,2,3,4-tetrahydroquinazoline-7-carboxamide] | > 6.00 | 

Continued, values first:

Row | pEC50 [1] | pEC50 [2] | SMILES
19 | > 6.00 | 5.00 to 6.00 | C[C@H]1c2ccc(C(=O)NCc3c(F)cc(F)cc3F)cc2N(Cc2c(F)ccc(OCCO)c2F)C(=O)N1C [Example 256, (S)-1-(2,6-difluoro-3-(2-hydroxyethoxy)benzyl)-3,4-dimethyl-2-oxo-N-(2,4,6-trifluorobenzyl)-1,2,3,4-tetrahydroquinazoline-7-carboxamide]
20 | > 6.00 | > 6.00 | COc1cc(F)c(CN2C(=O)N(C)[C@@H](C)c3ccc(C(=O)NCc4c(F)cc(F)cc4F)cc32)cc1OC [Example 265, (S)-1-(2-fluoro-4,5-dimethoxybenzyl)-3,4-dimethyl-2-oxo-N-(2,4,6-trifluorobenzyl)-1,2,3,4-tetrahydroquinazoline-7-carboxamide]
21 | > 6.00 | 5.00 to 6.00 | CC(O)c1ccc(F)c(CN2C(=O)N(C)[C@@H](C)c3ccc(C(=O)NCc4c(F)cc(F)cc4F)cc32)c1F (stereo partly drawn) [Example 289, (4S)-1-(2,6-difluoro-3-(1-hydroxyethyl)benzyl)-3,4-dimethyl-2-oxo-N-(2,4,6-trifluorobenzyl)-1,2,3,4-tetrahydroquinazoline-7-carboxamide]
22 | > 6.00 |  | C[C@H]1c2ccc(C(=O)NCc3c(F)cc(F)cc3F)cc2N(Cc2c(OCC(=O)O)ccc(F)c2F)C(=O)N1C [Example 244, (S)-2-(2-((3,4-dimethyl-2-oxo-7-((2,4,6-trifluorobenzyl)carbamoyl)-3,4-dihydroquinazolin-1(2H)-yl)methyl)-3,4-difluorophenoxy)acetic acid]
23 | > 6.00 |  | C[C@H]1c2ccc(C(=O)NCc3cccc(O)c3F)cc2N(Cc2c(F)cccc2Cl)C(=O)N1C [Example 267, (S)-1-(2-chloro-6-fluorobenzyl)-N-(2-fluoro-3-hydroxybenzyl)-3,4-dimethyl-2-oxo-1,2,3,4-tetrahydroquinazoline-7-carboxamide]
24 | 5.00 to 6.00 |  | COc1cc(F)ccc1CNC(=O)c1ccc2c(c1)N(Cc1c(F)cccc1Cl)C(=O)N(C)[C@H]2C [Example 247, (S)-1-(2-chloro-6-fluorobenzyl)-N-(4-fluoro-2-methoxybenzyl)-3,4-dimethyl-2-oxo-1,2,3,4-tetrahydroquinazoline-7-carboxamide]
25 | 5.00 to 6.00 |  | COc1cc(F)cc(CNC(=O)c2ccc3c(c2)N(Cc2c(F)cccc2Cl)C(=O)N(C)[C@H]3C)c1 [Example 248, (S)-1-(2-chloro-6-fluorobenzyl)-N-(3-fluoro-5-methoxybenzyl)-3,4-dimethyl-2-oxo-1,2,3,4-tetrahydroquinazoline-7-carboxamide]
26 | < 5.00 |  | CC1c2ccc(C(=O)NCc3c(F)cc(F)cc3F)cc2N(Cc2c(F)cccc2OCC(=O)O)C(=O)N1C (centres unmarked) [Example 234, 2-(2-((3,4-dimethyl-2-oxo-7-((2,4,6-trifluorobenzyl)carbamoyl)-3,4-dihydroquinazolin-1(2H)-yl)methyl)-3-fluorophenoxy)acetic acid]
27 | > 6.00 |  | CC1c2ccc(C(=O)NCc3c(F)cc(F)cc3F)cc2N(Cc2ccc(OCCO)cc2F)C(=O)N1C (centres unmarked) [Example 230, 1-(2-fluoro-4-(2-hydroxyethoxy)benzyl)-3,4-dimethyl-2-oxo-N-(2,4,6-trifluorobenzyl)-1,2,3,4-tetrahydroquinazoline-7-carboxamide]
28 | 5.00 to 6.00 |  | COc1cccc(CNC(=O)c2ccc3c(c2)N(Cc2c(F)cccc2Cl)C(=O)N(C)[C@H]3C)c1F [Example 249, (S)-1-(2-chloro-6-fluorobenzyl)-N-(2-fluoro-3-methoxybenzyl)-3,4-dimethyl-2-oxo-1,2,3,4-tetrahydroquinazoline-7-carboxamide]
